# Assay results: US8119614B2, “Substitution derivatives of N6-benzyladenosine, methods of their preparation, their use for preparation of drugs, cosmetic preparations and growth regulators, pharmaceutical preparations, cosmetic preparations and growth regulators containing these compounds” (Ustav Experimentalni Botaniky Akademie Ved Ceske Republiky, priority 2002, dated 2012)
# pEC50: −log10 of the molar value.
# Legend:
# [1] = system: tobacco callus Nicotiana tabacum L. cv. Wisconsin 38; experiment: Growth of cytokinin-dependent tobacco callus; format: cell-based; settings: for Activity (%) [10^−5 mol · l^−1 BAP = 100%]: callus growth, at concentration with highest activity; for Concentration with highest activity: fresh callus weight after four weeks
# Human lymphocytes = experiment: Immunosuppressive activity: concanavalin A induced lymphocyte proliferation, [^3H]-TdR incorporation; format: cell-based; settings: 72 hours, read-out: Human lymphocytes ED50
# Procedure: Human heparinized peripheral blood was obtained from healthy volunteers by cubital vein punction. The blood was diluted in PBS (1:3) and mononuclear cells were separated by centrifugation in Ficoll-Hypaque density gradient (Pharmacia, 1.077 g/ml) at 2200 rpm for 30 minutes. Following centrifugation, lymphocytes were washed in PBS and resuspended in cell culture medium (RMPI 1640, 2 mM glutamine, 100 U/ml penicillin, 100 μg/ml streptomycin, 10% fetal calf serum and sodium bicarbonate).
# The cells were diluted at target density of 1,100,000 cells/ml were added by pipette (180 μl) into 96/well microtiter plates. Four-fold dilutions of the intended test concentration were added at time zero in 20 μl aliquots to the microtiter plate wells. Usually, test compound was evaluated at six 4-fold dilutions. In routine testing, the highest well concentration was 266.7 μM. All drug concentrations were examined in duplicates. All wells with exception of unstimulated controls were activated with 50 μl of concanavalin A (25 μg/ml). Incubations of cells with test compounds lasted for 72 hours at 37° C., in 5% CO2 atmosphere and 100% humidity. At the end of incubation period, the cells were assayed by using the [^3H]-TdR:
# Cell cultures were incubated with 0.5 μCi (20 μl of stock solution 500 μCi/ml) per well for 6 hours at 37° C. and 5% CO2. The automated cell harvester was used to lyse cells in water and adsorb the DNA onto glass-fiber filters in the format of microtiter plate. The DNA incorporated [^3H]-TdR was retained on the filter while unincorporated material passes through. The filters were dried at room temperature overnight, sealed into a sample bag with 10-12 ml of scintillant. The amount of [^3H]-TdR present in each filter (in cpm) was determined by scintillation counting in a Betaplate liquid scintillation counter. The effective dose of immunosuppressant (ED) was calculated using the following equation: ED=(CCPMdrug exposed well/mean CCPMcontrol wells)×100%. The ED50 value, the drug concentration inhibiting proliferation of 50% of lymphocytes, was calculated from the obtained dose response curves.
# [2] = system: human diploid fibroblasts (HCA cells); experiment: Inhibition of senescence of mammal cells: β-galactosidase staining of senescent cells; format: cell-based; settings: for Senescent cells (%) HCA25: passage 25; for Senescent cells (%) HCA45: passage 45; for Senescent cells (%) HCA80: passage 80
# Procedure: In this example, human diploid fibroblasts (HCA cells with different levels of passage: passage 25—labelling HCA25; passage 45—labelling HCA45; passage 80—labelling HCA80) were used for studying β-galactosidase activity. Medium used for cells cultivation was removed, cells were washed twice with PBS and fixed in 2-3 ml of fixation agent consisting of 2% of formaldehyde and 0.2% of flutaraldehyde in PBS. Cells were incubated at room temperature for 5 min and subsequently washed twice with PBS. Cells were then incubated at 37° C. (without CO2) for 1 to 16 hours in 2-3 ml of solution comprising potassium ferricyanide (5 mM), potassium ferrocyanide (5 mM), MgCl2 (2 mM), X-gal (5-bromo-4-chloro-3-indolyl-β-D-galactopyranoside) (1 mg/ml) in citrate/phosphate buffer, pH 6.0. […] In this experiment only senescent cells were labelled due to the effect of β-galactosidase on the substrate.
# glutamate kinase = experiment: Field studies: glutamate kinase activity in spring wheat; format: in vivo; set-up: tested at 1 µM (10^-6 M spray solution); settings: 6 days after the application, Control = 100.0
# Procedure: (§1) Height of plants, leaf area, dry matter, development of vegetation opex—bases of future spike, and number of spikelets were monitored after germination in 14 day intervals, […]. From these primary data, values used in production physiology are derived, as leaf area index LAI, photosynthetic capacity LAD, tillering potential. Experiments with treatment of spring wheat crop (variety Sandra) are carried out on the field (area 10 m^2, four replicates) by spraying 1 litr of 10^−6 molar solution of tested compound (cytokinin) at the transition period from jointing stage to athesis stage (49 DC).
# Glutamate kinase activity was determined 6 days after the application. This enzyme was selected because of good corelation of its activity changes and state of transport of endogenous substances (nutrients from roots, assimilates to cariopsis), respiration, energy (adenosintriphosphate) transfer, storage of nutrients, growth and developmental proceses, and also metabolism of proline, which is known from literature to play an important role in adaptation against stress (unsuitable stand, drought, hypersalinity, coldness) and also in regulation of both theoretical and real production (restriction of seed number reduction per spikelet). Enzyme glutamate kinase catalyses to glutamate conversion into γ glutamylphosphate, which is first step of proline biosynthesis from glutamate. Therefore, this enzyme is, as essential precursor of other plant metabolic pathways, marker of stress inhibition. It can be determined spectrofotometrically (Vasáková, 1980). For analysis, acetone powder is prepared from a sample by standard method, subsequently extracted by 0.05M potassium-phosphate buffer pH=7.2 and centrifugated. Glutamate kinase fraction is precipitated using crystalline ammonium sulfate and after dialysis, glutamate kinase activity is determined spectrophotometrically. Proline accumulation increased by stress corresponds as a “feedback” to glutamate kinase inhibition.
# [3] = system: spring wheat (variety Sandra); experiment: Field studies: yield analysis of spring wheat crop; format: in vivo; settings: spray of 10^−6 molar solution, Control = 100.0
# Procedure: Crops (over the 4-year period) of spring wheat were sown in the experimental fields of Czech Agriculture University (CZU) (region of sugar beet production type) at a seeding rate of 400 germinative grains·m^−2 into ploughed and shoddy soil containing 116.1 mg/kg P, 228.3 mg/kg K, and 211.8 mg/kg Mg (agrochemical analyses were done at Department of Pedology CZU) (interval between ploughing and sowing is usually 3-4 days, longer only in case of adverse weather conditions). Preceding crop was rape. Soil preparation was done by the classical way using skid and harrow and after seeding is rolled.
# as §1
# Yield analysis, evaluating spike lenght and seed number per spikelet (Σ Z/K) were carried out for 30 plant per each variant, yield from 1 m^2 and 1000 grain weight (HTS) was determined from 8 replicates, yield per ha was subsequently calculated.
Structure (SMILES),Activity (%) [10^−5 mol · l^−1 BAP = 100%] [1] [%],Concentration with highest activity [1],pEC50 (Human lymphocytes),Senescent cells (%) HCA25 [2] [%],Senescent cells (%) HCA45 [2] [%],Senescent cells (%) HCA80 [2] [%],GK % (glutamate kinase activity) (glutamate kinase) [%],HTS (%) (1000 grain weight) [3],Yield(%) [3] [%],Σ Z/K (%) (seed number per spikelet) [3],Σ spike/m^2 (%) [3] [%]
"OC[C@H]1O[C@@H](n2cnc3c(NCc4ccccc4Cl)ncnc32)[C@H](O)[C@@H]1O [2-chlorobenzylamino, 6-(2-chlorobenzylamino)purine riboside]",93 ± 4,10^−6 mol · l^−1,5.08,,,,,,,,
"OC[C@H]1O[C@@H](n2cnc3c(NCc4ccccc4F)ncnc32)[C@H](O)[C@@H]1O [2-fluorobenzylamino, 6-(2-fluorobenzylamino)purine riboside]",100 ± 9,10^−6 mol · l^−1,5.25,4,4,15,,,,,
"COc1cccc(CNc2ncnc3c2ncn3[C@@H]2O[C@H](CO)[C@@H](O)[C@H]2O)c1O [2-hydroxy-3-methoxybenzylamino, 6-(2-hydroxy-3-methoxybenzylamino)purine riboside]",,,5.85,,,,,,,,
"COc1ccccc1CNc1ncnc2c1ncn2[C@@H]1O[C@H](CO)[C@@H](O)[C@H]1O [2-methoxybenzylamino, 6-(2-methoxybenzylamino)purine riboside]",108 ± 1,10^−5 mol · l^−1,,4,4,16,,,,,
"Cc1ccccc1CNc1ncnc2c1ncn2[C@@H]1O[C@H](CO)[C@@H](O)[C@H]1O [2-methylbenzylamino, 6-(2-methylbenzylamino)purine riboside]",98 ± 4,10^−6 mol · l^−1,5.24,,,,,,,,
"OC[C@H]1O[C@@H](n2cnc3c(NCc4ccc(Cl)c(Cl)c4)ncnc32)[C@H](O)[C@@H]1O [3,4-dichlorobenzylamino, 6-(3,4-dichlorobenzylamino)purine riboside]",,,,,,,114.2,101.5,113.3,111.9,99.7
"OC[C@H]1O[C@@H](n2cnc3c(NCc4cccc(Br)c4)ncnc32)[C@H](O)[C@@H]1O [3-bromobenzylamino, 6-(3-bromobenzylamino)purine riboside]",82 ± 11,10^−6 mol · l^−1,,,,,116.6,101.5,131.8,123.8,104.9
"OC[C@H]1O[C@@H](n2cnc3c(NCc4cccc(Cl)c4)ncnc32)[C@H](O)[C@@H]1O [3-chlorobenzylamino, 6-(3-chlorobenzylamino)purine riboside]",96 ± 5,10^−5 mol · l^−1,5.60,,,,124.7,108.3,128.8,119.1,100.5
"OC[C@H]1O[C@@H](n2cnc3c(NCc4cccc(F)c4)ncnc32)[C@H](O)[C@@H]1O [3-fluorobenzylamino, 6-(3-fluorobenzylamino)purine riboside]",91 ± 6,10^−5 mol · l^−1,5.15,3,5,13,,,,,
"COc1cccc(CNc2ncnc3c2ncn3[C@@H]2O[C@H](CO)[C@@H](O)[C@H]2O)c1 [3-methoxybenzylamino, 6-(3-methoxybenzylamino)purine riboside]",92 ± 1,10^−6 mol · l^−1,,5,6,12,,,,,
"Cc1cccc(CNc2ncnc3c2ncn3[C@@H]2O[C@H](CO)[C@@H](O)[C@H]2O)c1 [3-methylbenzylamino, 6-(3-methylbenzylamino)purine riboside]",90 ± 2,10^−6 mol · l^−1,5.19,,,,,,,,
"OC[C@H]1O[C@@H](n2cnc3c(NCc4ccc(Cl)cc4)ncnc32)[C@H](O)[C@@H]1O [4-chlorobenzylamino, 6-(4-chlorobenzylamino)purine riboside]",46 ± 14,10^−6 mol · l^−1,5.41,,,,,,,,
"OC[C@H]1O[C@@H](n2cnc3c(NCc4ccc(F)cc4)ncnc32)[C@H](O)[C@@H]1O [4-fluorobenzylamino, 6-(4-fluorobenzylamino)purine riboside]",100 ± 6,10^−6 mol · l^−1,5.03,,,,,,,,
